Assay results reported in patent US10882837B2, “Amide compounds and use thereof” (ALPHALA CO., LTD., priority 2017, dated 2021).

Experiments:
[1] = target: T1, glucagon receptor (GCGR) (Homo sapiens, UniProt P47871); experiment: Glucagon cAMP inhibition assay (Cisbio cAMP Dynamic 2 HTRF); assay type: cell-based; conditions: GCGR overexpressed CHO-K1 cells or human primary hepatocytes (not specified); glucagon at EC50
T1 construct: expressed in transfected cells; host or cells: CHO-K1
In short: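 GCGR-overexpressing CHO-K1 cells or human primary hepatocytes in HBSS with 0.1% BSA and 800 nM IBMX, pre-incubated 30 min with compound (1% DMSO final), then stimulated 30 min at room temperature with glucagon at its EC50. cAMP measured by HTRF after 60 min lysis; IC50 from non-linear regression.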

[2] = target: T2, GCGR (Homo sapiens, UniProt P47871); experiment: HTRF cAMP assay in primary human hepatocytes stimulated with recombinant glucagon; assay type: cell-based; set-up: endogenous in cells; host or cells: primary human hepatocytes
Procedure: Downstream secondary messenger eAMP induced by glucagon was detected by Cisbio cAMP Dynamic 2 kit. Testing compounds were each prepared as a dimethyl sulfoxide (DMSO) solution at the concentration of 10 mM. To evaluate the potency of compounds in inhibiting the cAMP production, glucagon receptor (GCGR) overexpressed CHO-K1 cells or human primary hepatocytes were treated with compounds with a serial dilution. The cells were re-suspended in Hank's Balanced Salt solution (HBSS) contained 0.1% (w/v) bovine serum albumin and 800 nM 3-isobutyl-1-methylxanthine (IBMX) and seeded into low volume, 384 wells white plate. The diluted compounds were then added into the plate for 30 minutes pre-incubation where the final DMSO concentration was 1%. The cells were stimulated with glucagon at the concentration equaled to EC50 (an indicium of the concentration of a drag that gives half-maximal response) for 30 minutes at room temperature. After incubation, lysis buffer contain cAMP antibody and fluorescence acceptor were added into each well for additional 60 minutes incubation.
The HTRF cAMP assay was performed by following the manufacturer guidance. Primary human hepatocytes, pre-incubated with tested compounds at various concentrations, were stimulated with recombinant glucagon and the IC50 values were determined by the non-linear regression based on the amount of cAMP production.
Target sequence in this assay (P47871 26-477): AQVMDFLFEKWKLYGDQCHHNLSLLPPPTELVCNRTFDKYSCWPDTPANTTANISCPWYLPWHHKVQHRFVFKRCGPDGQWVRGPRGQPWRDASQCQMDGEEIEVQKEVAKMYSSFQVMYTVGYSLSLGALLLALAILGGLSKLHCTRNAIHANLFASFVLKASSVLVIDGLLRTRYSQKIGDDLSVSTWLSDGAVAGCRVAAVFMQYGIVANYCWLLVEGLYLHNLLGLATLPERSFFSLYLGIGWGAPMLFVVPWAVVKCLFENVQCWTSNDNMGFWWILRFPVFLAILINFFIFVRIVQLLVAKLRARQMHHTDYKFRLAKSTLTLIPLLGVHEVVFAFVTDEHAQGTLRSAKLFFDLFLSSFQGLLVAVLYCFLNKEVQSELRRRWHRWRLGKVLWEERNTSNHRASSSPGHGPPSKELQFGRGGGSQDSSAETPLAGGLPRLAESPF

[3] = target: T2, GCGR; experiment: I125-glucagon binding assay (competition, GCGR membrane fractions); set-up: expressed in transfected cells; host or cells: CHO-K1; conditions: competition with I125-glucagon 0.0625 nM; membrane fractions from GCGR overexpressed CHO-K1 cells
In short: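 Membranes from CHO-K1 cells overexpressing GCGR (7.5 µg/well) were preincubated 5 min with serially diluted compound in 50 mM Tris pH 7.4, 0.5% BSA. I125-glucagon was then added at 0.0625 nM final and incubated 30 min at 25 °C. After filtration, bound radioactivity was counted and IC50 derived by non-linear regression.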
Target sequence in this assay (P47871 26-477, species assumed): as the sequence (P47871 26-477) above

T1 sequence (P47871 26-477, species assumed): as the sequence (P47871 26-477) above

IC50 [1] | IC50 [2] | IC50 [3] | Compound
2380 nM | 53 nM | 41.8 nM | CC(C)[C@H](Nc1ccc(C(=O)NCCC(=O)O)cn1)c1ccc(-c2nc3ccccc3o2)cc1 [Compound 4-30, (S)-3-(6-((1-(4-(benzo[d]oxazol-2-yl)phenyl)-2-methylpropyl)amino)nicotinamido)propanoic acid]
2690 nM | 62 nM | 47.7 nM | CC(C)[C@H](Nc1ccc(C(=O)NCCC(=O)O)cn1)c1ccc(-c2nc3ccccc3s2)cc1 [Compound 4-28, (S)-3-(6-((1-(4-(benzo[d]thiazol-2-yl)phenyl)-2-methylpropyl)amino)nicotinamido)propanoic acid]
2050 nM | 19 nM | 92 nM | CCC(C)[C@H](Nc1ccc(C(=O)NCCC(=O)O)cc1)c1ccc(-c2nnc(-c3ccccc3)o2)cc1 (stereo partly drawn) [Compound 1-49, 3-(4-(((1S)-2-methyl-1-(4-(5-phenyl-1,3,4-oxadiazol-2-yl)phenyl)butyl)amino)benzamido)propanoic acid]
473 nM | 15 nM | 49 nM | CCC(C)[C@H](Nc1ccc(C(=O)NCCC(=O)O)cc1)c1ccc(-c2noc(-c3ccccc3)n2)cc1 (stereo partly drawn) [Compound 2-19, 3-(4-(((1S)-2-methyl-1-(4-(5-phenyl-1,2,4-oxadiazol-3-yl)phenyl)butyl)amino)benzamido)propanoic acid]
